Assay results reported in patent USRE48253E1, “Methotrexate adjuvants to reduce toxicity and methods for using the same” (Tosk, Inc., priority 2008, dated 2020).

Columns and labels:
[1] = test system: UPase knockout (19519) Drosophila melanogaster; experiment: Fly Study II: MTX lethality in UPase knockout flies; type: in vivo
Method: (§1) Embryos of UPase knockout (19519) Drosophila melanogaster were orally exposed to a dose range of MTX doses in food admix. Embryos of Wild-type (Oregon-R) were orally exposed to the same dose range of MTX in presence and absence of 0.04 mg TK-112690. Scoring was based on life or death 15 days after initiation of MTX exposure. […] Wild-type D. melanogaster are sensitive to lethal effects of ≥0.1 mg MTX.
(§2) The aim of this study was to evaluate the lethal effects of a range (0.001, 0.01, 0.05, 0.1, 0.2, 0.4 mg) of doses of orally fed MTX in wild-type (Ore-R) and UPase mutant Drosophila melanogaster. Embryos of UPase knockout (19519) Drosophila melanogaster were orally exposed to a dose range of MTX (0.001, 0.01, 0.05, 0.1, 0.2, 0.4 mg) in food admix. Embryos of Wild-type (Oregon-R) were orally exposed to the same dose range of MTX in presence and absence of 0.04 mg TK-112690. Scoring was based on life or death 15 days after initiation of MTX exposure.

[2] = test system: Wild-type (Oregon-R) Drosophila melanogaster; experiment: Fly Study II: MTX lethality in wild-type flies; type: in vivo; settings: for MTX dose with lethal effects in wild-type flies: orally in food admix, scored 15 days after initiation
Method: as §1, §2

C57BL/6 mice = experiment: Mouse Study III: MTX-induced infection measured as WBC counts; type: in vivo; settings: Day 11
Method: C57BL/6 mice (n=10/dose group), treated i.p. 50 mg/kg MTX on Day 1, 2, 3, 4, 6 and 8 along with 60 mg/kg TK-1126901.p. 3 hr±MTX followed by single daily doses TK-112690 on days not treated with MTX. On Day 11, the animals were sacrificed and hematology performed on the resulting blood. Group 1=saline control, Group 2=MTX control and Group 3=MTX+TK-112690.
Several parameters have been examined in an effort to develop a model to confirm the protection from mucositis observed in the LPS/MTX assay. On examination of complete blood counts (CBCs), consistently elevated levels of white blood cell counts (WBCs) are observed when mice are treated with MTX (FIG. 4). This increase is not observed in animals that are also treated with TK-112690 (FIG. 4). […] LPS is a large molecule on the outer membrane of Gram negative bacteria. Tissues exposed to LPS express pro-inflammatory cytokines such as TNF-α and […]. Increases in these cytokines due to exposure of tissues to LPS generate an immune response which, in turn, increases WBCs.
For the study whose data are presented in FIG. 4, C57BL/6 mice (n=10/dose group) were treated i.p. with 50 mg/kg MTX on Day 1, 2, 3, 4, 6 and 8 along with 60 mg/kg TK-1126901.p. 3 hr±MTX followed by single daily doses TK-112690 on days not treated with MTX. On Day 11, the animals were bled and hematology performed on the resulting blood samples. […]

C57Bl/6 female mice = experiment: Mouse Study II: MTX-induced loss of mucosal permeability (plasma iodixanol); type: in vivo; settings: day 7
Method: C57Bl/6 female mice (n=7) were treated intraperitoneal (ip) with 100 mg/kg MTX on days 2, 3 and 4 with and without 60 mg/kg TK-112690 (ip) three hours before, and after, MTX injections. On day 7, mucosal barrier injury was estimated by measuring plasma concentrations of orally administered iodixanol determined by HPLC using UV detection (Boxplots with minimum and maximum values (black lines). Orally administered iodixanol is not absorbed absent an increase in mucosal permeability. Group 1=saline control, Group 2=MTX and Group 3=MTX+TK-112690.
The aim of this study was to evaluate the ability of a representative a 2,2′-anhydropyrimidine test article to mitigate MTX-induced loss of mucosal permeability. C57Bl/6 female mice (n=7) were treated (ip) with 100 mg/kg MTX on days 2, 3 and 4 with and without 60 mg/kg TK-112690 (ip) three hours before, and after, MTX injections. On day 7, mucosal barrier injury was estimated by measuring plasma concentrations of orally administered iodixanol determined by HPLC using UV detection. Orally administered iodixanol is not absorbed absent an increase in mucosal permeability.

CCRF-CEM human tumors = experiment: Mouse Study IV: xenograft with CCRF-CEM implants; type: in vivo, SCID mice
Method: In this study, n=10 SCID mice per dose group were treated with CCRF-CEM human tumors and the tumors allowed to grow to a size of approximately 100 mg. Then the animals were treated by intraperitoneal (ip) injection with either control 20% DMSO/80% PBS (1×/day)×5 days (Group 1), MTX 7.5 mg/kg/injection (1×/day)×5 days (Group 2) or MTX 7.5 mg/kg/inj. (1×/day)×5 days+TK-112690 30 mg/kg/inj.±3 hrs (group 3). The Figure provides tumor sizes in each of the 3 groups on Day 27 of the study.
A xenograft study was performed to analyze the effect of TK-112690. administration on the in vivo efficacy of MTX against a human cancer. Human CCRF-CEM (T-ALL) cells were implanted subcutaneously into SCID mice. Tumor volumes were recorded on a regular basis, and once tumors had become established, treatment was given. […] All treatments were given ip, and TK-112690 was give 3 hours prior to and 3 hours after MTX administration.

SMILES | lethal effects of MTX in UPase knockout flies ([1]; MTX 0.001-0.4 mg orally) | MTX dose with lethal effects in wild-type flies [2] | MTX dose with lethal effects in wild-type flies ([2]; listed as Methotrexate) | systemic WBC (C57BL/6 mice; 50 mg/kg MTX ip Day 1, 2, 3, 4, 6 and 8) | mucosal barrier injury (plasma concentration of orally administered iodixanol) (C57Bl/6 female mice; 100 mg/kg MTX ip on Days 2, 3 and 4) | tumor volume day 27, treatment vs saline (CCRF-CEM human tumors; MTX 7.5 mg/kg/injection ip (1×/day)×5 days) | added protection from methotrexate toxicities in UPase mutant flies ([1]; TK-112690 added to dose range of methotrexate) | methotrexate dose from whose lethality protection is provided ([2]; 0.04 mg TK-112690) | protection of wild-type flies from lethal effects of MTX ([2]; 0.04 mg TK-112690, MTX 0.001-0.4 mg) | protection from MTX-induced mucositis measured as WBC counts (C57BL/6 mice; 60 mg/kg ip with MTX 50 mg/kg) | protection from MTX-induced mucosal barrier injury (plasma concentration of orally administered iodixanol) (C57Bl/6 female mice; 60 mg/kg ip three hours before and after MTX 100 mg/kg, days 2, 3, 4) | tumor volume day 27, MTX+TK-112690 vs MTX (CCRF-CEM human tumors; TK-112690 30 mg/kg ip 3 hours prior to and after MTX 7.5 mg/kg)
CN(Cc1cnc2nc(N)nc(N)c2n1)c1ccc(C(=O)N[C@@H](CCC(=O)O)C(=O)O)cc1 [MTX, N-[4-[[(2,4-diamino-6-pteridinyl)methyl]methylamino]benzoyl]-L-glutamic acid, reference compound] | resistant to lethal effects | ≥ 0.1 mg | 0.1 mg | increases systemic WBC | experienced mucosal barrier injury | significantly different |  |  |  |  |  | 
Cc1cn2c(nc1=O)O[C@H]1[C@H](O)[C@@H](CO)O[C@H]12 [TK-112690, 2,2′-anhydro-5-methyluridine] |  |  |  |  |  |  | does not provide added protection | ≤ 0.4 mg | resistant to the lethal effects | protects from MTX-induced mucositis | protected mice from MTX-induced mucosal barrier injury | not significantly different
